Converted amounts (≈) assume the structure as drawn. Structures can show the parent of a compound that is named as a salt.
What was measured:
Assay in all cases: Minimum inhibitory concentration, two-fold dilution method
Type in all cases: cell-based
[1] = test system: C. freundii GN346/16; details: Citrobacter freundii, 10^6 CFU/ml, 35° C., 18 to 20 hr
Experimental: (§1) The antibacterial activity of the compounds according to the present invention was assayed in terms of the minimum inhibitory concentration, for various bacteria, measured by the conventional two-fold dilution method described in, for example, CHEMOTHERAPY, Vol. 29, No. 1, 76-79 (1981). The measurement was carried out in the following manner: 10^6 CFU/ml of a bacterium to be tested was inoculated on a Medium N for disc susceptibility test (manufactured by Nissui Pharmaceutical Co., Ltd.) and cultivated at 35° C. for 18 to 20 hr.
(§2) The test compounds were the compounds prepared in Examples 4 and 5, Cefozopran (CZOP, control 1), Cefpirome (CPR, control 2), the compound prepared in Example 66 (control 3) described in WO 95/07912.

[2] = test system: E. cloacae G-0008; details: Enterobacter cloacae, G0008, 10^6 CFU/ml, 35° C., 18 to 20 hr
Experimental: as §1, §2

[3] = test system: E. coli NIHJ JC-2; details: Escherichia coli, NIHJJC2, 10^6 CFU/ml, 35° C., 18 to 20 hr
Experimental: as §1, §2

[4] = test system: K. pneumoniae PCI602; details: Klebsiella pneumoniae, 10^6 CFU/ml, 35° C., 18 to 20 hr
Experimental: as §1, §2

[5] = test system: M. morganii 1510/S-1; details: Morganella morganii, 1510/S1, 10^6 CFU/ml, 35° C., 18 to 20 hr
Experimental: as §1, §2

[6] = test system: P. aeruginosa E-2; details: Pseudomonas aeruginosa, E2, 10^6 CFU/ml, 35° C., 18 to 20 hr
Experimental: as §1, §2

[7] = test system: P. aeruginosa GN10362; details: Pseudomonas aeruginosa, 10^6 CFU/ml, 35° C., 18 to 20 hr
Experimental: as §1, §2

[8] = test system: P. aeruginosa PA01; details: Pseudomonas aeruginosa; P. aeruginosa PA01, Imipenem- and Aztreonam-resistant; 10^6 CFU/ml, 35° C., 18 to 20 hr
Experimental: as §1, §2

[9] = test system: S. aureus 126; details: Staphylococcus aureus; S. aureus 126, methicilline-resistant (MRSA); 10^6 CFU/ml, 35° C., 18 to 20 hr
Experimental: as §1, §2

[10] = test system: S. aureus 209P JC-1; details: Staphylococcus aureus, 10^6 CFU/ml, 35° C., 18 to 20 hr
Experimental: as §1, §2

[11] = test system: S. epidermidis ATCC14990; details: Staphylococcus epidermidis, 10^6 CFU/ml, 35° C., 18 to 20 hr
Experimental: as §1, §2

[12] = test system: S. marcescens No. 1; details: Serratia marcescens, 10^6 CFU/ml, 35° C., 18 to 20 hr
Experimental: as §1, §2

[13] = test system: S. pneumoniae IP692; details: Streptococcus pneumoniae, 10^6 CFU/ml, 35° C., 18 to 20 hr
Experimental: as §1, §2

[14] = test system: S. pneumoniae PRC9; details: Streptococcus pneumoniae; S. pneumoniae PRC9, penicillin-resistant (PRSP); 10^6 CFU/ml, 35° C., 18 to 20 hr
Experimental: as §1, §2

[15] = test system: S. pneumoniae JPR20; details: Streptococcus pneumoniae; S. pneumoniae JPR20, penicillin-resistant (PRSP); 10^6 CFU/ml, 35° C., 18 to 20 hr
Experimental: as §1, §2

[16] = test system: S. pneumoniae JPR9; details: Streptococcus pneumoniae; S. pneumoniae JPR9, penicillin-resistant (PRSP); 10^6 CFU/ml, 35° C., 18 to 20 hr
Experimental: as §1, §2

| SMILES | MIC [1] | MIC [2] | MIC [3] | MIC [4] | MIC [5] | MIC [6] | MIC [7] | MIC [8] | MIC [9] | MIC [10] | MIC [11] | MIC [12] | MIC [13] | MIC [14] | MIC [15] | MIC [16] |
| --- | --- | --- | --- | --- | --- | --- | --- | --- | --- | --- | --- | --- | --- | --- | --- | --- |
| CO/N=C(\C(=O)N[C@@H]1C(=O)N2C(C(=O)[O-])=C(C[n+]3ccn4ncccc43)CS[C@H]12)c1nsc(N)n1 [Control 1, Cefozopran, reference compound] | 0.05 µg/mL (≈ 0.097 µM) | 0.1 µg/mL (≈ 0.194 µM) | 0.05 µg/mL (≈ 0.097 µM) | 0.1 µg/mL (≈ 0.194 µM) | 0.1 µg/mL (≈ 0.194 µM) | 0.78 µg/mL (≈ 1.51 µM) | 0.78 µg/mL (≈ 1.51 µM) | 12.5 µg/mL (≈ 24.2 µM) | 50 µg/mL (≈ 97 µM) | 0.39 µg/mL (≈ 0.756 µM) | 0.78 µg/mL (≈ 1.51 µM) | 0.1 µg/mL (≈ 0.194 µM) | 0.05 µg/mL (≈ 0.097 µM) | 1.56 µg/mL (≈ 3.03 µM) |  |  |
| CO/N=C(\C(=O)N[C@@H]1C(=O)N2C(C(=O)[O-])=C(C[n+]3cccc4c3CCC4)CS[C@H]12)c1csc(N)n1 [Control 2, Cefpirome, reference compound] | 0.05 µg/mL (≈ 0.0972 µM) | 0.05 µg/mL (≈ 0.0972 µM) | 0.05 µg/mL (≈ 0.0972 µM) | 0.05 µg/mL (≈ 0.0972 µM) | ≤ 0.025 µg/mL | 3.13 µg/mL (≈ 6.08 µM) | 3.13 µg/mL (≈ 6.08 µM) | 25 µg/mL (≈ 48.6 µM) | 50 µg/mL (≈ 97.2 µM) | 0.2 µg/mL (≈ 0.389 µM) | 0.39 µg/mL (≈ 0.758 µM) | ≤ 0.025 µg/mL | ≤ 0.025 µg/mL | 0.78 µg/mL (≈ 1.52 µM) |  |  |
| Nc1nc(/C(=N/OCF)C(=O)N[C@@H]2C(=O)N3C(C(=O)[O-])=C(C[n+]4cc5sccn5c4CNS(N)(=O)=O)CS[C@H]23)ns1 [Ex. 4, (6R,7R)-7-[(Z)-2-(5-amino-1,2,4-thiadiazol-3-yl)-2-(fluoromethoxyimino)acetamido]-3-[5-sulfamidomethylimidazo[5,1-b]thiazolium-6-yl]methyl-3-cephem-4-carboxylate (inner salt)] | ≤ 0.025 µg/mL | 0.05 µg/mL | ≤ 0.025 µg/mL | ≤ 0.025 µg/mL | ≤ 0.025 µg/mL | 0.78 µg/mL | 0.39 µg/mL | 3.13 µg/mL | 6.25 µg/mL | 0.78 µg/mL | 0.78 µg/mL | 0.05 µg/mL | ≤ 0.025 µg/mL | 0.39 µg/mL | 0.05 µg/mL | 0.2 µg/mL |
| CO/N=C(\C(=O)N[C@@H]1C(=O)N2C(C(=O)[O-])=C(C[n+]3cc4sccn4c3CNS(N)(=O)=O)CS[C@H]12)c1nsc(N)n1 [Ex. 5, (6R,7R)-7-[(Z)-2-(5-Amino-1,2,4-thiadiazol-3-yl)-2-(methoxyimino)acetamido]-3-[5-sulfamidomethylimidazo[5,1-b]thiazolium-6-yl]methyl-3-cephem-4-carboxylate (inner salt)] | 0.05 µg/mL | 0.1 µg/mL | 0.05 µg/mL | 0.05 µg/mL | 0.05 µg/mL | 0.78 µg/mL | 0.78 µg/mL | 3.13 µg/mL | 6.25 µg/mL | 0.78 µg/mL | 0.78 µg/mL | 0.1 µg/mL | ≤ 0.025 µg/mL | 0.39 µg/mL |  |  |
